In patent US6994551B2, “Stable self-etching primer and adhesive bonding resin compositions, systems, and methods” (Bisco, Inc., priority 2002, dated 2006) one finds appearance of mixture data, which are given here for one compound.

Molecules are shown by their SMILES. Read-outs that look alike come from different tables or passages of the source.

Procedure: Several experiments were performed to evaluate the solubility of Bis-MEP in various solvent systems.

Regarding `C=C(C)C(=O)OCCOP(=O)(O)OCCOC(=O)C(=C)C` [Bis-MEP, Bis-[2-(methacryloyloxy)ethyl]phosphate], the appearance of mixture result is, setting by setting: (0.67 weight percent in water) “did not dissolve”; (2 weight percent mixture in water) “did not dissolve”; (10 weight percent in water (no ethanol)) “not homogeneous”; (14.72 weight percent in ethanol 34.40 / water 50.88 weight percent, room temperature) “clear solution”; (20 weight percent in water (no ethanol)) “not homogeneous”.
